From US5235045A, “Non-azo naphthalimide dyes” (priority 1992, dated 1993)

Experiments:
[1] = tested on: H9 cells; assay: Location in living cells (fluorescence microscopy); format: cell-based, human; settings: 5 and 25 μM; 1.5 hours
Description: Following the protocol of (1), above, H9 cells were stained with Compound lb, and the technique of fluorescent microscopy was used to determine visually the sites of localization of dye fluorescence in living cells. Specifically, H9 cells were counted with a hemocytometer and diluted to 5×10^5 /ml. Compound 1b was added to two aliquots to give dye concentrations of 5 and 25 μM, and the tubes were incubated for 1.5 hours. Cytospin slides of the cell suspensions were made and they were examined with the fluorescence microscope (Olympus AH-2) using B excitation plus a 460 nm interference excitation filter and a 495 nm emission filter. The cells were also counted with a hemocytometer and their viability determined (see below). […] The former may reflect the diffusional component of the dye incorporation, or may reflect binding in the ER membrane. The latter may indicate lysosomal localization of pinocytosed dye as occurs with Lucifer Yellow.

[2] = tested on: Vesicular stomatitis Virus (Ogden strain) (VSV), G-protein; format: biochemical; settings: 10.0 μM, 460 J/cm^2
[3] = tested on: Herpes simplex virus type 1; assay: Effect of DiEd6Br and light on HSV-1 containing 15% fetal calf serum (plaque assay); format: cell-based, MacIntyre strain
[4] = tested on: Herpes simplex virus type 1; assay: Effect of DiEd6Br and light on aqueous suspensions of HSV-1 (plaque assay); format: cell-based, MacIntyre strain
[5] = tested on: Human immunodeficiency virus (HIV); assay: Effect of DiEd6Br and light on HIV (MTT viability of MT-4 cells); format: cell-based; settings: for Optical Density (MTT, MT-4 cells): mean of triplicate, 570 nm
[6] = 2 G-protein units or 1 G-protein + 2 M-protein units

Question: How did the “localization in cell nucleus” value [1] turn out when CCCCCCNc1ccc2c3c(cccc13)C(=O)N(CCCCCC)C2=O [Compound 1b, 4-(hexyl)amino-N-hexyl-1,8-naphthalimide] was run?
Answer: The value was “rigorously excluded from the cell nucleus”.

Question: What about the “site of dye fluorescence” value [1] of the same compound?
Answer: The value was “highly fluorescent with the cytoplasm being the primary site”.

Question: With CCCCCCN1C(=O)c2cccc3c(NCCNC(=O)CCCCC(=O)NCCNc4c(Br)cc5c6c(cccc46)C(=O)N(CCCCCC)C5=O)c(Br)cc(c23)C1=O [Compound XLIV] as the compound, how does the heavier bands [2] read?
Answer: The heavier bands was “many ill separated heavier bands merging together near”.

Question: What about the “Inferred Crosslinked Species” value [2, 6] of the same compound?
Answer: Its value is 2 G-protein.

Question: What about the “Inferred Crosslinked Species, Gel mw” value [2, 6] of the same compound?
Answer: Its value is 130 kD.

Question: And the PFU/ml ([3]; 1.25 μM, 15% fetal calf serum, 20 J/cm2, 420 nm)?
Answer: The PFU/ml was 0 PFU/ml.

Question: And the PFU/ml ([3]; 2.5 μM, 15% fetal calf serum, 20 J/cm2, 420 nm)?
Answer: Its PFU/ml is 0 PFU/ml.

Question: What about the PFU/ml ([3]; 5 μM, 15% fetal calf serum, 20 J/cm2, 420 nm) of the same compound?
Answer: Its PFU/ml is 0 PFU/ml.

Question: And the PFU/ml ([3]; 10 μM, 15% fetal calf serum, 20 J/cm2, 420 nm)?
Answer: Its PFU/ml is 0 PFU/ml.

Question: And the PFU/ml ([3]; .078 μM, 15% fetal calf serum, 20 J/cm2, 420 nm)?
Answer: Its PFU/ml is 4.2 × 10^4 PFU/ml.

Question: And the PFU/ml ([3]; .156 μM, 15% fetal calf serum, 20 J/cm2, 420 nm)?
Answer: The PFU/ml was 4.5 × 10^3 PFU/ml.

Question: And the PFU/ml ([3]; .312 μM, 15% fetal calf serum, 20 J/cm2, 420 nm)?
Answer: Its PFU/ml is 8.5 × 10^1 PFU/ml.

Question: And the PFU/ml ([3]; .625 μM, 15% fetal calf serum, 20 J/cm2, 420 nm)?
Answer: Its PFU/ml is 6.0 × 10^1 PFU/ml.

Question: What about the log reduction at 1.25 µM ([3]; Human alphaherpesvirus 1, light or radiation study, 1.25 μM, 15% fetal calf serum, 20 J/cm2, 420 nm, read-out: Log10 Reduction) of the same compound?
Answer: The log reduction at 1.25 µM was no less than 5.

Question: What about the log reduction at 2.5 µM ([3]; Human alphaherpesvirus 1, light or radiation study, 2.5 μM, 15% fetal calf serum, 20 J/cm2, 420 nm, read-out: Log10 Reduction) of the same compound?
Answer: The log reduction at 2.5 µM was no less than 5.

Question: And the log reduction at 5 µM ([3]; Human alphaherpesvirus 1, light or radiation study, 5 μM, 15% fetal calf serum, 20 J/cm2, 420 nm, read-out: Log10 Reduction)?
Answer: The log reduction at 5 µM was no less than 5.

Question: And the log reduction at 10 µM ([3]; Human alphaherpesvirus 1, light or radiation study, 10 μM, 15% fetal calf serum, 20 J/cm2, 420 nm, read-out: Log10 Reduction)?
Answer: The log reduction at 10 µM was no less than 5.

Question: And the log reduction at 0.078 µM ([3]; Human alphaherpesvirus 1, light or radiation study, .078 μM, 15% fetal calf serum, 20 J/cm2, 420 nm, read-out: Log10 Reduction)?
Answer: Its log reduction at 0.078 µM is 0.38.

Question: What about the log reduction at 0.156 µM ([3]; Human alphaherpesvirus 1, light or radiation study, .156 μM, 15% fetal calf serum, 20 J/cm2, 420 nm, read-out: Log10 Reduction) of the same compound?
Answer: Its log reduction at 0.156 µM is 1.35.

Question: And the log reduction at 0.312 µM ([3]; Human alphaherpesvirus 1, light or radiation study, .312 μM, 15% fetal calf serum, 20 J/cm2, 420 nm, read-out: Log10 Reduction)?
Answer: Its log reduction at 0.312 µM is 3.1.

Question: What about the log reduction at 0.625 µM ([3]; Human alphaherpesvirus 1, light or radiation study, .625 μM, 15% fetal calf serum, 20 J/cm2, 420 nm, read-out: Log10 Reduction) of the same compound?
Answer: Its log reduction at 0.625 µM is 4.

Question: What about the “kill of HSV-1” value ([3]; as low as 0.156 mM, 420 nm, 20 J/cm^2) of the same compound?
Answer: Its value is greater than 99.99%.

Question: What about the PFU/ml ([4]; 2.5 μM, not irradiated) of the same compound?
Answer: The PFU/ml was 1.3 × 10^6 PFU/ml.

Question: What about the PFU/ml ([4]; 10 μM, not irradiated) of the same compound?
Answer: Its PFU/ml is 1.2 × 10^6 PFU/ml.

Question: What about the PFU/ml ([4]; .156 μM, not irradiated) of the same compound?
Answer: The PFU/ml was 1.1 × 10^6 PFU/ml.

Question: What about the PFU/ml ([4]; .625 μM, not irradiated) of the same compound?
Answer: Its PFU/ml is 1.0 × 10^6 PFU/ml.

Question: And the log reduction at 2.5 µM ([4]; Human alphaherpesvirus 1, light or radiation study, 2.5 μM, not irradiated, read-out: Log10 Reduction)?
Answer: The log reduction at 2.5 µM was 0.

Question: What about the log reduction at 10 µM ([4]; Human alphaherpesvirus 1, light or radiation study, 10 μM, not irradiated, read-out: Log10 Reduction) of the same compound?
Answer: The log reduction at 10 µM was 0.0348.

Question: What about the log reduction at 0.156 µM ([4]; Human alphaherpesvirus 1, light or radiation study, .156 μM, not irradiated, read-out: Log10 Reduction) of the same compound?
Answer: Its log reduction at 0.156 µM is 0.0725.

Question: What about the log reduction at 0.625 µM ([4]; Human alphaherpesvirus 1, light or radiation study, .625 μM, not irradiated, read-out: Log10 Reduction) of the same compound?
Answer: Its log reduction at 0.625 µM is 0.114.

Question: And the log reduction at 2.5 µM ([4]; Human alphaherpesvirus 1, light or radiation study, Test #1, 2.5 μM, 20 J/cm2, 420 nm, read-out: Log10 Reduction)?
Answer: Its log reduction at 2.5 µM is 6.

Question: And the log reduction at 10 µM ([4]; Human alphaherpesvirus 1, light or radiation study, Test #1, 10 μM, 20 J/cm2, 420 nm, read-out: Log10 Reduction)?
Answer: Its log reduction at 10 µM is 6.

Question: What about the log reduction at 0.156 µM ([4]; Human alphaherpesvirus 1, light or radiation study, Test #1, .156 μM, 20 J/cm2, 420 nm, read-out: Log10 Reduction) of the same compound?
Answer: The log reduction at 0.156 µM was 6.

Question: And the log reduction at 0.625 µM ([4]; Human alphaherpesvirus 1, light or radiation study, Test #1, .625 μM, 20 J/cm2, 420 nm, read-out: Log10 Reduction)?
Answer: The log reduction at 0.625 µM was 6.

Question: What about the log reduction at 0.0099 µM ([4]; Human alphaherpesvirus 1, light or radiation study, Test #2, .0099 μM, 20 J/cm2, 420 nm, read-out: Log10 Reduction) of the same compound?
Answer: Its log reduction at 0.0099 µM is 3.27.

Question: And the log reduction at 0.0195 µM ([4]; Human alphaherpesvirus 1, light or radiation study, Test #2, .0195 μM, 20 J/cm2, 420 nm, read-out: Log10 Reduction)?
Answer: The log reduction at 0.0195 µM was 4.24.

Question: And the log reduction at 0.039 µM ([4]; Human alphaherpesvirus 1, light or radiation study, Test #2, .039 μM, 20 J/cm2, 420 nm, read-out: Log10 Reduction)?
Answer: Its log reduction at 0.039 µM is 4.87.

Question: What about the log reduction at 0.078 µM ([4]; Human alphaherpesvirus 1, light or radiation study, Test #2, .078 μM, 20 J/cm2, 420 nm, read-out: Log10 Reduction) of the same compound?
Answer: The log reduction at 0.078 µM was 5.87.

Question: What about the log reduction at 0.156 µM ([4]; Human alphaherpesvirus 1, light or radiation study, Test #2, .156 μM, 20 J/cm2, 420 nm, read-out: Log10 Reduction) of the same compound?
Answer: Its log reduction at 0.156 µM is 5.87.

Question: And the PFU/ml ([4]; Test #1, 2.5 μM, 20 J/cm2, 420 nm)?
Answer: Its PFU/ml is 0 PFU/ml.

Question: And the PFU/ml ([4]; Test #1, 10 μM, 20 J/cm2, 420 nm)?
Answer: Its PFU/ml is 0 PFU/ml.

Question: What about the PFU/ml ([4]; Test #1, .156 μM, 20 J/cm2, 420 nm) of the same compound?
Answer: Its PFU/ml is 0 PFU/ml.

Question: And the PFU/ml ([4]; Test #1, .625 μM, 20 J/cm2, 420 nm)?
Answer: Its PFU/ml is 0 PFU/ml.

Question: And the PFU/ml ([4]; Test #2, .0099 μM, 20 J/cm2, 420 nm)?
Answer: The PFU/ml was 4.0 × 10^2 PFU/ml.

Question: And the PFU/ml ([4]; Test #2, .0195 μM, 20 J/cm2, 420 nm)?
Answer: Its PFU/ml is 4.3 × 10^1 PFU/ml.

Question: And the PFU/ml ([4]; Test #2, .039 μM, 20 J/cm2, 420 nm)?
Answer: The PFU/ml was 9.9 × 10^0 PFU/ml.

Question: What about the PFU/ml ([4]; Test #2, .078 μM, 20 J/cm2, 420 nm) of the same compound?
Answer: The PFU/ml was 0 PFU/ml.

Question: What about the PFU/ml ([4]; Test #2, .156 μM, 20 J/cm2, 420 nm) of the same compound?
Answer: Its PFU/ml is 0 PFU/ml.

Question: And the “kill of HSV-1” value ([4]; as low as 0.0195 mM, 420 nm, 2.5% or less of serum proteins)?
Answer: Its value is greater than 99.99%.

Question: What about the “Optical Density (MTT, MT-4 cells)” value ([5]; 1.25 μM, 0 J/cm^2) of the same compound?
Answer: The value was 0.541.

Question: What about the “Optical Density (MTT, MT-4 cells)” value ([5]; 1.25 μM, 20 J/cm^2) of the same compound?
Answer: The value was 1.242.

Question: And the “Optical Density (MTT, MT-4 cells)” value ([5]; 2.5 μM, 0 J/cm^2)?
Answer: The value was 0.290.

Question: What about the “Optical Density (MTT, MT-4 cells)” value ([5]; 2.5 μM, 20 J/cm^2) of the same compound?
Answer: Its value is 1.309.

Question: What about the “Optical Density (MTT, MT-4 cells)” value ([5]; 5 μM, 0 J/cm^2) of the same compound?
Answer: The value was 0.559.

Question: What about the “Optical Density (MTT, MT-4 cells)” value ([5]; 5 μM, 20 J/cm^2) of the same compound?
Answer: Its value is 1.337.

Question: What about the “inactivation of HIV” value ([5]; 1.25 mM or greater (so in the source), light treated) of the same compound?
Answer: The value was “essentially complete inactivation of HIV”.
